According to article PMC9395446, “First-in-human phase 1/1b study to evaluate sitravatinib in patients with advanced solid tumors” (Investigational New Drugs, 2022):

Assay: Safety in phase 1/1b study (DLTs, TRAEs, TEAEs; CTCAE v4.03)
Assay type: in vivo, human
Description: Safety assessments included evaluation of DLTs, AEs, physical examinations, vital sign measurements, electrocardiogram recordings and laboratory tests.
A DLT was defined as a grade ≥ 4 hematologic abnormality lasting ≥ 4 days; grade 3 thrombocytopenia with clinically significant bleeding; febrile neutropenia; clinically significant grade ≥ 3 non-hematologic AEs not related to underlying malignancy; intolerable grade 2 AEs; or toxicity resulting in an inability to deliver 80% of the dose during the first treatment cycle.
The safety population included all patients who received ≥ 1 dose of sitravatinib. […] The PK evaluable population included all patients with sufficient concentration-time data for PK parameter evaluation. The modified intent-to-treat (mITT) population included all phase 1b patients who received ≥ 1 dose of study drug.

Structure (SMILES): COCCNCc1ccc(-c2cc3nccc(Oc4ccc(NC(=O)C5(C(=O)Nc6ccc(F)cc6)CC5)cc4F)c3s2)nc1 [sitravatinib, Sitravatinib]
- AST increased TRAE, any grade (Overall): 36 (18.7) n (%)
- AST increased TRAE, grade ≥3 (Overall): 2 (1.0) n (%)
- Abdominal pain TEAE, any grade (Overall): 44 (22.8) n (%)
- Abdominal pain TEAE, grade ≥3 (Overall): 6 (3.1) n (%)
- Abdominal pain TRAE, any grade (Overall): 22 (11.4) n (%)
- Abdominal pain TRAE, grade ≥3 (Overall): 0 n (%)
- Anemia TEAE, any grade (Overall): 38 (19.7) n (%)
- Anemia TEAE, grade ≥3 (Overall): 12 (6.2) n (%)
- Any TEAE (Overall): 190 (98.4) n (%)
- Any TRAE (Overall): 174 (90.2) n (%)
- Asthenia TEAE, any grade (Overall): 20 (10.4) n (%)
- Asthenia TEAE, grade ≥3 (Overall): 0 n (%)
- Back pain TEAE, any grade (Overall): 32 (16.6) n (%)
- Back pain TEAE, grade ≥3 (Overall): 3 (1.6) n (%)
- Blood and lymphatic system disorders TEAE, any grade (Overall): 50 (25.9) n (%)
- Blood and lymphatic system disorders TEAE, grade ≥3 (Overall): 20 (10.4) n (%)
- Blood creatinine increased TEAE, any grade (Overall): 21 (10.9) n (%)
- Blood creatinine increased TEAE, grade ≥3 (Overall): 0 n (%)
- Cardiac disorders TEAE, any grade (Overall): 24 (12.4) n (%)
- Cardiac disorders TEAE, grade ≥3 (Overall): 10 (5.2) n (%)
- Constipation TEAE, any grade (Overall): 66 (34.2) n (%)
- Constipation TEAE, grade ≥3 (Overall): 0 n (%)
- Constipation TRAE, any grade (Overall): 22 (11.4) n (%)
- Constipation TRAE, grade ≥3 (Overall): 0 n (%)
- Cough TEAE, any grade (Overall): 34 (17.6) n (%)
- Cough TEAE, grade ≥3 (Overall): 0 n (%)
- Decreased appetite TEAE, any grade (Overall): 74 (38.3) n (%)
- Decreased appetite TEAE, grade ≥3 (Overall): 4 (2.1) n (%)
- Decreased appetite TRAE, any grade (Overall): 51 (26.4) n (%)
- Decreased appetite TRAE, grade ≥3 (Overall): 2 (1.0) n (%)
- Dehydration TEAE, any grade (Overall): 36 (18.7) n (%)
- Dehydration TEAE, grade ≥3 (Overall): 5 (2.6) n (%)
- Diarrhea TEAE, any grade (Overall): 116 (60.1) n (%)
- Diarrhea TEAE, grade ≥3 (Overall): 25 (13.0) n (%)
- Diarrhea TRAE, any grade (Overall): 98 (50.8) n (%)
- Diarrhea TRAE, grade ≥3 (Overall): 20 (10.4) n (%)
- Dizziness TEAE, any grade (Overall): 34 (17.6) n (%)
- Dizziness TEAE, grade ≥3 (Overall): 0 n (%)
- Dizziness TRAE, any grade (Overall): 20 (10.4) n (%)
- Dizziness TRAE, grade ≥3 (Overall): 0 n (%)
- Dry mouth TEAE, any grade (Overall): 28 (14.5) n (%)
- Dry mouth TEAE, grade ≥3 (Overall): 0 n (%)
- Dry mouth TRAE, any grade (Overall): 21 (10.9) n (%)
- Dry mouth TRAE, grade ≥3 (Overall): 0 n (%)
- Dysphonia TEAE, any grade (Overall): 47 (24.4) n (%)
- Dysphonia TEAE, grade ≥3 (Overall): 0 n (%)
- Dysphonia TRAE, any grade (Overall): 27 (14.0) n (%)
- Dysphonia TRAE, grade ≥3 (Overall): 0 n (%)
- Dyspnea TEAE, any grade (Overall): 31 (16.1) n (%)
- Dyspnea TEAE, grade ≥3 (Overall): 6 (3.1) n (%)
- Edema peripheral TEAE, any grade (Overall): 29 (15.0) n (%)
- Edema peripheral TEAE, grade ≥3 (Overall): 1 (0.5) n (%)
- Endocrine disorders TEAE, any grade (Overall): 53 (27.5) n (%)
- Endocrine disorders TEAE, grade ≥3 (Overall): 2 (1.0) n (%)
- Fatigue TEAE, any grade (Overall): 98 (50.8) n (%)
- Fatigue TEAE, grade ≥3 (Overall): 19 (9.8) n (%)
- Fatigue TRAE, any grade (Overall): 83 (43.0) n (%)
- Fatigue TRAE, grade ≥3 (Overall): 14 (7.3) n (%)
- Gastrointestinal disorders TEAE, any grade (Overall): 167 (86.5) n (%)
- Gastrointestinal disorders TEAE, grade ≥3 (Overall): 49 (25.4) n (%)
- General disorders and administration site conditions TEAE, any grade (Overall): 131 (67.9) n (%)
- General disorders and administration site conditions TEAE, grade ≥3 (Overall): 23 (11.9) n (%)
- Headache TEAE, any grade (Overall): 40 (20.7) n (%)
- Headache TEAE, grade ≥3 (Overall): 2 (1.0) n (%)
- Hypertension TEAE, any grade (Overall): 88 (45.6) n (%)
- Hypertension TEAE, grade ≥3 (Overall): 47 (24.4) n (%)
- Hypertension TRAE, any grade (Overall): 78 (40.4) n (%)
- Hypertension TRAE, grade ≥3 (Overall): 40 (20.7) n (%)
- Hypokalemia TEAE, any grade (Overall): 20 (10.4) n (%)
- Hypokalemia TEAE, grade ≥3 (Overall): 3 (1.6) n (%)
- Hypomagnesemia TEAE, any grade (Overall): 24 (12.4) n (%)
- Hypomagnesemia TEAE, grade ≥3 (Overall): 0 n (%)
- Hyponatremia TEAE, any grade (Overall): 25 (13.0) n (%)
- Hyponatremia TEAE, grade ≥3 (Overall): 11 (5.7) n (%)
- Hypophosphatemia TEAE, any grade (Overall): 20 (10.4) n (%)
- Hypophosphatemia TEAE, grade ≥3 (Overall): 11 (5.7) n (%)
- Hypothyroidism TEAE, any grade (Overall): 47 (24.4) n (%)
- Hypothyroidism TEAE, grade ≥3 (Overall): 0 n (%)
- Hypothyroidism TRAE, any grade (Overall): 33 (17.1) n (%)
- Hypothyroidism TRAE, grade ≥3 (Overall): 0 n (%)
- Infections and infestations TEAE, any grade (Overall): 74 (38.3) n (%)
- Infections and infestations TEAE, grade ≥3 (Overall): 24 (12.4) n (%)
- Injury, poisoning, procedural complications TEAE, any grade (Overall): 35 (18.1) n (%)
- Injury, poisoning, procedural complications TEAE, grade ≥3 (Overall): 2 (1.0) n (%)
- Investigations TEAE, any grade (Overall): 116 (60.1) n (%)
- Investigations TEAE, grade ≥3 (Overall): 36 (18.7) n (%)
- Lipase increased TEAE, any grade (Overall): 26 (13.5) n (%)
- Lipase increased TEAE, grade ≥3 (Overall): 14 (7.3) n (%)
- Metabolism and nutrition disorders TEAE, any grade (Overall): 130 (67.4) n (%)
- Metabolism and nutrition disorders TEAE, grade ≥3 (Overall): 41 (21.2) n (%)
- Musculoskeletal and connective tissue disorders TEAE, any grade (Overall): 103 (53.4) n (%)
- Musculoskeletal and connective tissue disorders TEAE, grade ≥3 (Overall): 10 (5.2) n (%)
- Nausea TEAE, any grade (Overall): 81 (42.0) n (%)
- Nausea TEAE, grade ≥3 (Overall): 8 (4.1) n (%)
- Nausea TRAE, any grade (Overall): 58 (30.1) n (%)
- Nausea TRAE, grade ≥3 (Overall): 5 (2.6) n (%)
- Neoplasms benign, malignant, unspecified TEAE, any grade (Overall): 24 (12.4) n (%)
- Neoplasms benign, malignant, unspecified TEAE, grade ≥3 (Overall): 19 (9.8) n (%)
- Nervous system disorders TEAE, any grade (Overall): 92 (47.7) n (%)
- Nervous system disorders TEAE, grade ≥3 (Overall): 8 (4.1) n (%)
- PPE syndrome TEAE, any grade (Overall): 41 (21.2) n (%)
- PPE syndrome TEAE, grade ≥3 (Overall): 11 (5.7) n (%)
- PPE syndrome TRAE, any grade (Overall): 39 (20.2) n (%)
- PPE syndrome TRAE, grade ≥3 (Overall): 11 (5.7) n (%)
- Pain in extremity TEAE, any grade (Overall): 21 (10.9) n (%)
- Pain in extremity TEAE, grade ≥3 (Overall): 2 (1.0) n (%)
- Proteinuria TEAE, any grade (Overall): 26 (13.5) n (%)
- Proteinuria TEAE, grade ≥3 (Overall): 2 (1.0) n (%)
- Proteinuria TRAE, any grade (Overall): 22 (11.4) n (%)
- Proteinuria TRAE, grade ≥3 (Overall): 2 (1.0) n (%)
- Psychiatric disorders TEAE, any grade (Overall): 39 (20.2) n (%)
- Psychiatric disorders TEAE, grade ≥3 (Overall): 4 (2.1) n (%)
- Rash TEAE, any grade (Overall): 26 (13.5) n (%)
- Rash TEAE, grade ≥3 (Overall): 2 (1.0) n (%)
- Rash TRAE, any grade (Overall): 21 (10.9) n (%)
- Rash TRAE, grade ≥3 (Overall): 2 (1.0) n (%)
- Renal and urinary disorders TEAE, any grade (Overall): 51 (26.4) n (%)
- Renal and urinary disorders TEAE, grade ≥3 (Overall): 6 (3.1) n (%)
- Respiratory, thoracic and mediastinal disorders TEAE, any grade (Overall): 121 (62.7) n (%)
- Respiratory, thoracic and mediastinal disorders TEAE, grade ≥3 (Overall): 21 (10.9) n (%)
- Serious TEAE (Overall): 79 (40.9) n (%)
- Serious TRAE (Overall): 30 (15.5) n (%)
- Skin and subcutaneous tissue disorders TEAE, any grade (Overall): 109 (56.5) n (%)
- Skin and subcutaneous tissue disorders TEAE, grade ≥3 (Overall): 15 (7.8) n (%)
- Stomatitis TEAE, any grade (Overall): 29 (15.0) n (%)
- Stomatitis TEAE, grade ≥3 (Overall): 2 (1.0) n (%)
- Stomatitis TRAE, any grade (Overall): 28 (14.5) n (%)
- Stomatitis TRAE, grade ≥3 (Overall): 2 (1.0) n (%)
- TEAE grade ≥3 (Overall): 145 (75.1) n (%)
- TEAE leading to death (Overall): 21 (10.9) n (%)
- TEAE leading to discontinuation (Overall): 41 (21.2) n (%)
- TEAE leading to treatment modification (Overall): 133 (68.9) n (%)
- TRAE grade ≥3 (Overall): 103 (53.4) n (%)
- TRAE leading to death (Overall): 1 (0.5) n (%)
- TRAE leading to discontinuation (Overall): 26 (13.5) n (%)
- TRAE leading to treatment modification (Overall): 120 (62.2) n (%)
- UTI TEAE, any grade (Overall): 23 (11.9) n (%)
- UTI TEAE, grade ≥3 (Overall): 6 (3.1) n (%)
- Vascular disorders TEAE, any grade (Overall): 106 (54.9) n (%)
- Vascular disorders TEAE, grade ≥3 (Overall): 50 (25.9) n (%)
- Vomiting TEAE, any grade (Overall): 61 (31.6) n (%)
- Vomiting TEAE, grade ≥3 (Overall): 11 (5.7) n (%)
- Vomiting TRAE, any grade (Overall): 46 (23.8) n (%)
- Vomiting TRAE, grade ≥3 (Overall): 5 (2.6) n (%)
- Weight decreased TEAE, any grade (Overall): 42 (21.8) n (%)
- Weight decreased TEAE, grade ≥3 (Overall): 3 (1.6) n (%)
- Weight decreased TRAE, any grade (Overall): 27 (14.0) n (%)
- Weight decreased TRAE, grade ≥3 (Overall): 2 (1.0) n (%)
- ALT increased TEAE, any grade (Phase 1): 4 (12.5) n (%)
- ALT increased TEAE, grade ≥3 (Phase 1): 1 (3.1) n (%)
- ALT increased TRAE, any grade (Phase 1): 2 (6.3) n (%)
- ALT increased TRAE, grade ≥3 (Phase 1): 0 n (%)
- AST increased TEAE, any grade (Phase 1): 5 (15.6) n (%)
- AST increased TEAE, grade ≥3 (Phase 1): 1 (3.1) n (%)
- AST increased TRAE, any grade (Phase 1): 2 (6.3) n (%)
- AST increased TRAE, grade ≥3 (Phase 1): 0 n (%)
- Abdominal pain TEAE, any grade (Phase 1): 4 (12.5) n (%)
- Abdominal pain TEAE, grade ≥3 (Phase 1): 1 (3.1) n (%)
